The text below walks through data of patent US20250304576A1 (Cancer Research Technology Limited, priority 2022, published 2025).

One experiment deals with T1, Recombinant IKKα (Homo sapiens, UniProt O15111).
T1 construct: purchased Millipore, Dundee, UK
T1 sequence (O15111 1-745): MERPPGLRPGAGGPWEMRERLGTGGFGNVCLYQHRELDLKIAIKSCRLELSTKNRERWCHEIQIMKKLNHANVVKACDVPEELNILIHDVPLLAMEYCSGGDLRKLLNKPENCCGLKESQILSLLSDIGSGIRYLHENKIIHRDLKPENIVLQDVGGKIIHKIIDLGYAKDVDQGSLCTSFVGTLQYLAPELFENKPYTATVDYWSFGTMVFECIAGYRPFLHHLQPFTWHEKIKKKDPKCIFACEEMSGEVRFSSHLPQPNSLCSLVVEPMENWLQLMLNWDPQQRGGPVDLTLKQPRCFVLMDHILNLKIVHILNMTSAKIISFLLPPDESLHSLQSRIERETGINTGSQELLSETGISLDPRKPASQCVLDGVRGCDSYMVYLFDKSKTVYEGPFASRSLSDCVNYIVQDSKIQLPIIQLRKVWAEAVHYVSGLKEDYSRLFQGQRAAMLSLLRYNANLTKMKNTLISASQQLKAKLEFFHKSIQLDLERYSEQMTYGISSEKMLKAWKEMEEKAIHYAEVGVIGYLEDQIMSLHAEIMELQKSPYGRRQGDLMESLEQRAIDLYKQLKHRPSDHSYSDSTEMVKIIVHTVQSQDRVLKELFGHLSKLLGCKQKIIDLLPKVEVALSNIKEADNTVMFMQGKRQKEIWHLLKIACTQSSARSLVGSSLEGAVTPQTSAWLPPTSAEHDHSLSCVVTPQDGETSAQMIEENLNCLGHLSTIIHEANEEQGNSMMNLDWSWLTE
The experiment in a line: DELFIA IKKα kinase assay (apparent Ki, Cheng-Prusoff). As to conditions: DELFIA assay (first line of an example). In kind it is biochemical. The method in brief: (§1)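 Recombinant IKKα or IKKβ (37 nM) with 0.375 μM biotinylated IκB-α (Ser32) peptide and 40 μM ATP in 40 mM Tris-HCl pH 7.5, 20 mM MgCl2, 60 min at 30° C. Phospho-substrate captured on streptavidin and detected by anti-phospho-IκB-α plus europium anti-mouse IgG time-resolved fluorescence; apparent Ki via Cheng-Prusoff.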

For a further experiment, the target named is T2, Recombinant IKKβ (Homo sapiens, UniProt O14920).
T2 construct: purchased Millipore, Dundee, UK
T2 sequence (O14920 1-756): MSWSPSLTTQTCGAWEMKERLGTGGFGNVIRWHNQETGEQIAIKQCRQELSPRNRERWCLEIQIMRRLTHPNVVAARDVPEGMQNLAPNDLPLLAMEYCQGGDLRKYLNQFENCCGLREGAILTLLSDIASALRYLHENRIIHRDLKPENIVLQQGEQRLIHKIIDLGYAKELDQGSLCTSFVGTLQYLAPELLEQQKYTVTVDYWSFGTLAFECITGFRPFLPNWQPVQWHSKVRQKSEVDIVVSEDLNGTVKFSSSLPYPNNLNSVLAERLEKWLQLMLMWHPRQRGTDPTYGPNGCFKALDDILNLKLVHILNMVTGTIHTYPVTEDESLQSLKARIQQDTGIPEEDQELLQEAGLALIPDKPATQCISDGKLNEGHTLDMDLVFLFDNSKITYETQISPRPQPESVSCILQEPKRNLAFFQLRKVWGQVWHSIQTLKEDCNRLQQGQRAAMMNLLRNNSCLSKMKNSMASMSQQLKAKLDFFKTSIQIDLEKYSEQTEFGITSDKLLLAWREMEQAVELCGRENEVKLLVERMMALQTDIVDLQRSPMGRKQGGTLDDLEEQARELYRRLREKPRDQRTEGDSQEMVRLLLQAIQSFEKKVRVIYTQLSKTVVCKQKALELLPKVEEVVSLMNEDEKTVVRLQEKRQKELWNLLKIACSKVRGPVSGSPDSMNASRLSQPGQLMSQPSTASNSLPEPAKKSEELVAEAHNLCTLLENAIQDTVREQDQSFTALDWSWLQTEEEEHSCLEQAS
As to the kind of experiment: DELFIA IKKβ kinase assay (apparent Ki, Cheng-Prusoff). The experiment is classed as biochemical. Conditions: DELFIA assay (first line of an example). A digest of the protocol: as §1

On to `Nc1n[nH]c2ccc(-c3ccnc4[nH]c(CCN5CCOCC5)cc34)cc12` [Example 268, 5-(2-(2-Morpholinoethyl)-1H-pyrrolo[2,3-b]pyridin-4-yl)-1H-indazol-3-amine], for which the Ki was found to be 0.011 µM on Recombinant IKKα and 0.251 µM on Recombinant IKKβ.
The like results for `Nc1n[nH]c2ccc(-c3ccnc4[nH]c(CCCN5CCCCC5)cc34)cc12` [Example 269, 5-(2-(3-(Piperidin-1-yl)propyl)-1H-pyrrolo[2,3-b]pyridin-4-yl)-1H-indazol-3-amine] were, in that order, 0.011 µM and 0.507 µM.
`Nc1n[nH]c2ccc(-c3ccnc4[nH]c(CCCN5CCOCC5)cc34)cc12` [Example 271, 5-(2-(3-Morpholinopropyl)-1H-pyrrolo[2,3-b]pyridin-4-yl)-1H-indazlo-3-amine]: the Ki came out at 0.011 µM at Recombinant IKKα and 0.126 µM on Recombinant IKKβ.
Consider `Nc1n[nH]c2ccc(-c3ccnc4[nH]c(CC5CCNCC5)cc34)cc12` [Example 272, 5-(2-(Piperidin-4-ylmethyl)-1H-pyrrolo[2,3-b]pyridin-4-yl)-1H-indazol-3-amine], for which the Ki on Recombinant IKKα amounted to 0.005 µM; on Recombinant IKKβ, 0.05 µM.
